Reference: patent US9844226B2 (AJINOMOTO CO., INC., priority 2009, dated 2017)
Several values for one entry are separate records, joined by “and”; a condition that tells them apart may be missing. Equal entries are not always repeated. Entries after “also recorded” stand apart in the source; their conditions may differ. Starred links: 1 amine or outer side, 2 acyl side, 3 side chain; linkers in the order of their positions; H or OH if unused. Non-standard residues stand in square brackets, D forms with d. No end group written: not given here. γGlu = O=C(O)[C@H](CCC(=O)[*:2])N[*:1]

What was measured:
Type in all cases: in vivo, human
[1] = system: panelists; test: Quantitative sensory evaluation test of kokumi-imparting activity; settings: for Strength of Kokumi Impartment, Initial Taste / Strength of Kokumi Impartment, Middle/After Taste: scale -5~0~5, n=4; for Kokumi-imparting strength compared with γ-Glu-Val (in words): in vivo
Protocol: This quantitative sensory evaluation test was carried out as follows: The strength of the kokumi-imparting activity was measured for the cases where the test compound was mixed at concentrations of 0.001 to 0.5 g/dL with distilled water containing sodium glutamate (0.05 g/dL), inosine monophosphate (0.05 g/dL), and sodium chloride (0.5 g/dL). After the test compound was dissolved, samples more acidic than a control with no added test compound were adjusted, before further use, with NaOH to have a pH in a range of ±0.2 from the pH of the control with no added test compound. The sensory evaluation scores were as follows: control: 0 points; strong: 3 points; very strong: 5 points. The sensory evaluation was carried out using n (the number of panelists)=4. Moreover, to clarify the scale, the initial taste and the middle/after taste of γ-[…] at 0.001 g/dL were both set as 3.0 points. The term “middle/after taste” refers to the taste perceived during the period which includes the middle taste and the after taste. For the scoring, a linear scale method was employed. In this method, the score was marked as a position on a straight line showing positions for scores ranging from -5 0 5.

[2] = system: panelists; test: Strength of kokumi-imparting activity by Point of Subjective Equality (PSE), limit-determining technique
Protocol: The intensity of the kokumi-imparting activity of γ-Glu-Abu was determined by Point of Subjective Equality (PSE) according to the limit-determining technique (“Statistical Sensory Examination techniques”, written by SATO Shin, published by Japan Federation of Science and Technology). The sensory evaluation was carried out as follows: Distilled water containing sodium glutamate (0.05 g/dL), inosine monophosphate (0.05 g/dL) and sodium chloride (0.5 g/dL) was used as the solution for the sensory evaluation. […] To determine the concentration of γ-Glu-Val at which the strength of taste is the same as that of a solution obtained by causing the solution for the sensory evaluation to contain 0.005 g/dL of γ-[…] solutions were prepared with a concentration that varied on a 50% logarithmic scale by using a solution obtained by causing the solution for the sensory evaluation, to contain 0.01 g/dL of γ-Glu-Val as a standard. The concentrations of γ-Glu-Val was set to 7 values ranging from 0.0030 to 0.0337 g/dL. After the test substance was dissolved, samples more acidic than the control with no added test substance were adjusted, before further use, with NaOH to have a pH in a range of ±0.2 as compared to the pH of the control with no added test substance. The solutions were presented to eighteen panelists in ascending order of the γ-Glu-Val concentration. The evaluation was carried out until each panelist perceived that the strength was higher than that of the 0.005 g/dL γ-Glu-Abu solution. After a certain interval, the solutions were next presented to the eighteen panelists in descending order of the γ-Glu-Val concentration. The evaluation was carried out until each panelist perceived that the strength was lower than that of the 0.005 g/dL γ-Glu-Abu solution. In this sensory evaluation, the panelists were experienced in the development of food products. When the lower and upper threshold values were the same, there was no γ-Glu-Val concentration at which the difference between the perception that the strength was lower, and the perception that the strength was higher, was uncertain. […] Each confidence threshold (average) is an average of the lower thresholds and the upper thresholds. The point of subjective equality (PSE) of γ-Glu-Val to 50 ppm (0.0050 g/dL) of γ-Glu-Abu is expressed as follows: (the sum of the confidence threshold of the lower thresholds and that of the upper threshold value)/2.

[3] = system: panelists; test: Quantitative sensory evaluation test of salty taste enhancement
Protocol: After the test compound was dissolved, samples more acidic than a control containing no added test compound were adjusted, before further use, with NaOH to have a pH in a range of ±0.2 from the pH of the control to which no test compound was added.
The sensory evaluation scores were as follows, the control to which no test compound was added, i.e. a 0.5 g/dL sodium chloride solution: 0 points; a 0.75 g/dL sodium chloride solution: 5 points. The sensory evaluation was conducted on a scale ranging from −5 to 0 to 5, with n=5. The “initial taste” refers to the taste perceived by each panelist from the start of eating the sample to 2 seconds thereafter, while the term “middle/after taste” refers to that perceived by each panelist from 2 seconds on and after eating the same, i.e. perceived during the period including both the middle taste and the after taste. For the scoring, a linear scale method was used. In this method, the score was marked as a position on a straight line showing positions for scores ranging from −5˜0˜5. The panelists were persons who were engaged in the development of seasonings for foods for one year or longer in total, and who were capable of determining that the difference in the potency between γ-Glu-Cys-Gly and γ-Glu-Val-Gly each added to a umami taste and salty taste solution was around 10 times, while confirming the ability of these persons at regular intervals.

[4] = 0.2 g/dL in water with MSG 0.05, IMP 0.05, NaCl 0.5 g/dL
[5] = γ-Glu-Val vs 50 ppm γ-Glu-Abu, individual panelists (Nos. 1-18), ascending order of presentation
[6] = γ-Glu-Val vs 50 ppm γ-Glu-Abu, individual panelists (Nos. 19-36), descending order of presentation
[7] = 0.01 g/dL in water with MSG 0.05, IMP 0.05, NaCl 0.5 g/dL
[8] = 0.002 g/dL in 0.5 g/dL NaCl, 0.5 g/dL NaCl = 0, 0.75 g/dL NaCl = 5, n=5

For `N[C@@H](CCC(=O)N[C@@H](CO)C(=O)O)C(=O)O` [γ-Glu-Ser, γ-L-Glu-L-Ser], the “Strength of Kokumi Impartment, Initial Taste” value [1, 4] was 3.6 points, the “Strength of Kokumi Impartment, Middle/After Taste” value [1, 4] was 3.0 points and the “Kokumi-imparting strength compared with γ-Glu-Val (in words)” value [1] was “lower strength than γ-Glu-Val”.
In the case of `CC(C)[C@H](NC(=O)CC[C@H](N)C(=O)O)C(=O)O` [γ-Glu-Val, γ-L-Glu-L-Val], the “PSE (point of subjective equality) of γ-Glu-Val to 50 ppm γ-Glu-Abu” value ([2]; (lower + upper confidence threshold)/2) was 121.9 ppm, the “γ-Glu-Val concentration (PSE) with the same strength as 0.0050 g/dL γ-Glu-Abu, estimated from number of panelists (Table 4)” value ([2]; estimated from Table 4) was 0.0100 g/dL and the “PSE calculated from upper and lower threshold concentrations of γ-Glu-Val” value ([2]; vs 0.0050 g/dL γ-Glu-Abu) was 0.0122 g/dL. For the same compound, the “No. of Panelists whose evaluation was such that the difference between γ-Glu-Val and γ-Glu-Abu (0.0050 g/dL) was uncertain” value ([2]; γ-Glu-Val 0.0030 g/dL) was 0 No. of panelists, the “No. of Panelists whose evaluation was such that γ-Glu-Val was weaker than γ-Glu-Abu (0.0050 g/dL)” value ([2]; γ-Glu-Val 0.0030 g/dL) was 36 No. of panelists and the “No. of Panelists whose evaluation was such that γ-Glu-Val was stronger than γ-Glu-Abu (0.0050 g/dL)” value ([2]; γ-Glu-Val 0.0030 g/dL, 18 panelists, ascending and descending) was 0 No. of panelists. For the same compound, the “No. of Panelists whose evaluation was such that the difference between γ-Glu-Val and γ-Glu-Abu (0.0050 g/dL) was uncertain” value ([2]; γ-Glu-Val 0.0044 g/dL) was 0 No. of panelists, the “No. of Panelists whose evaluation was such that γ-Glu-Val was stronger than γ-Glu-Abu (0.0050 g/dL)” value ([2]; γ-Glu-Val 0.0044 g/dL) was 1 No. of panelists and the “No. of Panelists whose evaluation was such that γ-Glu-Val was weaker than γ-Glu-Abu (0.0050 g/dL)” value ([2]; γ-Glu-Val 0.0044 g/dL) was 35 No. of panelists. The “No. of Panelists whose evaluation was such that the difference between γ-Glu-Val and γ-Glu-Abu (0.0050 g/dL) was uncertain” value ([2]; γ-Glu-Val 0.0067 g/dL) was 13 No. of panelists, the “No. of Panelists whose evaluation was such that γ-Glu-Val was stronger than γ-Glu-Abu (0.0050 g/dL)” value ([2]; γ-Glu-Val 0.0067 g/dL) was 3 No. of panelists and the “No. of Panelists whose evaluation was such that γ-Glu-Val was weaker than γ-Glu-Abu (0.0050 g/dL)” value ([2]; γ-Glu-Val 0.0067 g/dL) was 20 No. of panelists. For the same compound, the “No. of Panelists whose evaluation was such that the difference between γ-Glu-Val and γ-Glu-Abu (0.0050 g/dL) was uncertain” value ([2]; γ-Glu-Val 0.0100 g/dL) was 13 No. of panelists, the “No. of Panelists whose evaluation was such that γ-Glu-Val was stronger than γ-Glu-Abu (0.0050 g/dL)” value ([2]; γ-Glu-Val 0.0100 g/dL) was 11 No. of panelists and the “No. of Panelists whose evaluation was such that γ-Glu-Val was weaker than γ-Glu-Abu (0.0050 g/dL)” value ([2]; γ-Glu-Val 0.0100 g/dL) was 12 No. of panelists. The “No. of Panelists whose evaluation was such that the difference between γ-Glu-Val and γ-Glu-Abu (0.0050 g/dL) was uncertain” value ([2]; γ-Glu-Val 0.0150 g/dL) was 6 No. of panelists, the “No. of Panelists whose evaluation was such that γ-Glu-Val was stronger than γ-Glu-Abu (0.0050 g/dL)” value ([2]; γ-Glu-Val 0.0150 g/dL) was 25 No. of panelists and the “No. of Panelists whose evaluation was such that γ-Glu-Val was weaker than γ-Glu-Abu (0.0050 g/dL)” value ([2]; γ-Glu-Val 0.0150 g/dL) was 5 No. of panelists. For the same compound, the “No. of Panelists whose evaluation was such that the difference between γ-Glu-Val and γ-Glu-Abu (0.0050 g/dL) was uncertain” value ([2]; γ-Glu-Val 0.0225 g/dL) was 7 No. of panelists, the “No. of Panelists whose evaluation was such that γ-Glu-Val was stronger than γ-Glu-Abu (0.0050 g/dL)” value ([2]; γ-Glu-Val 0.0225 g/dL) was 28 No. of panelists and the “No. of Panelists whose evaluation was such that γ-Glu-Val was weaker than γ-Glu-Abu (0.0050 g/dL)” value ([2]; γ-Glu-Val 0.0225 g/dL) was 1 No. of panelists. The “No. of Panelists whose evaluation was such that the difference between γ-Glu-Val and γ-Glu-Abu (0.0050 g/dL) was uncertain” value ([2]; γ-Glu-Val 0.0337 g/dL) was 0 No. of panelists, the “No. of Panelists whose evaluation was such that γ-Glu-Val was stronger than γ-Glu-Abu (0.0050 g/dL)” value ([2]; γ-Glu-Val 0.0337 g/dL) was 36 No. of panelists and the “No. of Panelists whose evaluation was such that γ-Glu-Val was weaker than γ-Glu-Abu (0.0050 g/dL)” value ([2]; γ-Glu-Val 0.0337 g/dL) was 0 No. of panelists. The “Confidence Region (average), Lower Threshold” value ([2]; γ-Glu-Val vs 50 ppm γ-Glu-Abu, average of the 36 lower thresholds) was 94.5 ppm, the “Confidence Region (average), Upper Threshold” value ([2]; γ-Glu-Val vs 50 ppm γ-Glu-Abu, average of the 36 upper thresholds) was 149.3 ppm and the “Lower Threshold at which each panelist determined that the concentrations were the same” value [2, 5] was 55.5 ppm and 125.0 ppm and 37.0 ppm and 83.5 ppm and 187.5 ppm. For the same compound, the “Upper Threshold at which each panelist determined that the concentrations were the same” value [2, 5] was 55.5 ppm and 125.0 ppm and 187.5 ppm and 37.0 ppm and 281.0 ppm and 83.5 ppm, the “Lower Threshold at which each panelist determined that the concentrations were the same” value [2, 6] was 125.0 ppm (3×) and 83.5 ppm (5×) and 187.5 ppm (3×) and 55.5 ppm (5×) and 56.0 ppm and 281.0 ppm and the “Upper Threshold at which each panelist determined that the concentrations were the same” value [2, 6] was 125.0 ppm (7×) and 281.0 ppm (5×) and 187.5 ppm (2×) and 83.5 ppm (4×). The “Sensory Evaluation Profile (kokumi)” value ([1]; 0.01 g/dL) was “The after taste was extremely weak”, the “Strength of Kokumi Impartment, Initial Taste” value [1, 7] was 3.1 points and the “Strength of Kokumi Impartment, Middle/After Taste” value [1, 7] was 2.4 points.
`N[C@@H](CCC(=O)N[C@@H](CS)C(=O)O)C(=O)O` [γ-Glu-Cys, γ-L-Glu-L-Cys] was tested, and the “Strength of Kokumi Impartment, Initial Taste” value [1, 7] was 3.1 points, the “Strength of Kokumi Impartment, Middle/After Taste” value [1, 7] was 3.1 points and the “Kokumi-imparting strength compared with γ-Glu-Val (in words)” value [1] was “strong effect approximately the same as that of γ-Glu-Val”.
In the case of `C[C@H](NC(=O)CC[C@H](N)C(=O)O)C(=O)O` [γ-Glu-Ala, γ-L-Glu-L-Ala], the “Strength of Kokumi Impartment, Initial Taste” value [1, 4] was 4.5 points, the “Strength of Kokumi Impartment, Middle/After Taste” value [1, 4] was 4.3 points and the “Kokumi-imparting strength compared with γ-Glu-Val (in words)” value [1] was “lower strength than γ-Glu-Val”.
[γGlu]-Val-Gly was tested, and the “Strength of Salty Taste Impartment, Initial Taste” value [3, 8] was 0.8 points, the “Strength of Salty Taste Impartment, Middle/After Taste” value [3, 8] was 1.8 points and the “Salty taste enhancement ability (in words)” value ([3]; comparison of γ-Glu-Val-Gly and γ-Glu-Abu) was “higher taste-imparting strength than γ-Glu-Abu; also recorded: remarkably disturbs the balance of the salty taste”.
